For two compounds, Activity results are on record in ChEMBL document CHEMBL5696441 (Nat Chem Biol, 2011).

The target in assay [1] is Aurora kinase B (Homo sapiens) (UniProt Q96GD4). The assay can be described thus: Inhibition of AURKB (unknown origin) assessed as remaining activity at 1 uM by Kinome scan method relative to control.
Assay [2] deals with T1, Calcium/calmodulin-dependent protein kinase type IV (Homo sapiens) (UniProt Q16566).
T1 sequence (whole entry): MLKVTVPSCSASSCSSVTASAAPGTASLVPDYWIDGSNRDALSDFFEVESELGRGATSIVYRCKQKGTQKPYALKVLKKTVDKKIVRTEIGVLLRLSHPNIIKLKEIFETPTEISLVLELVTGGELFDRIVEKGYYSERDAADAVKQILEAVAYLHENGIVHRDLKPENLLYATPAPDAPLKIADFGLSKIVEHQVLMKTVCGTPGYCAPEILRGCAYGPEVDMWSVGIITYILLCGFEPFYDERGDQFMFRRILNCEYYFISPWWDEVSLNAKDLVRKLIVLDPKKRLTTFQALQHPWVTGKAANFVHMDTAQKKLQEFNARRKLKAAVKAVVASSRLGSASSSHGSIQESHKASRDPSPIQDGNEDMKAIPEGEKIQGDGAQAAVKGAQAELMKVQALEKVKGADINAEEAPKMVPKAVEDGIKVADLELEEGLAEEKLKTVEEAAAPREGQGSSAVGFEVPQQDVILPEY
Briefly: Inhibition of CAMK4 (unknown origin) assessed as remaining activity at 1 uM by Kinome scan method relative to control.

Assay [3] has as its target Casein kinase I isoform delta (Homo sapiens) (UniProt P48730). The assay can be described thus: Inhibition of CSNK1D (unknown origin) assessed as remaining activity at 1 uM by Kinome scan method relative to control.
For assay [4], the target named is Macrophage-stimulating protein receptor (Homo sapiens) (UniProt Q04912). The assay can be described thus: Inhibition of MST1R (unknown origin) assessed as remaining activity at 1 uM by Kinome scan method relative to control.
Chain of Macrophage-stimulating protein receptor (Homo sapiens) (Q04912 25-304 limits assumed): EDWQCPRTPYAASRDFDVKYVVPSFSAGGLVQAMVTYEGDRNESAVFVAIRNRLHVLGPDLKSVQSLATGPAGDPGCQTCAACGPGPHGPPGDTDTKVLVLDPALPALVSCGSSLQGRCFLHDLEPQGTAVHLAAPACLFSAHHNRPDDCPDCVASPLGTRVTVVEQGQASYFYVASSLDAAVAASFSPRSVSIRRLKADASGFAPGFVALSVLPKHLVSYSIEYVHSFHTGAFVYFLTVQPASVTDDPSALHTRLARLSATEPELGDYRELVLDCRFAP
Chain of Macrophage-stimulating protein receptor (Homo sapiens) (Q04912 310-1400 limits assumed): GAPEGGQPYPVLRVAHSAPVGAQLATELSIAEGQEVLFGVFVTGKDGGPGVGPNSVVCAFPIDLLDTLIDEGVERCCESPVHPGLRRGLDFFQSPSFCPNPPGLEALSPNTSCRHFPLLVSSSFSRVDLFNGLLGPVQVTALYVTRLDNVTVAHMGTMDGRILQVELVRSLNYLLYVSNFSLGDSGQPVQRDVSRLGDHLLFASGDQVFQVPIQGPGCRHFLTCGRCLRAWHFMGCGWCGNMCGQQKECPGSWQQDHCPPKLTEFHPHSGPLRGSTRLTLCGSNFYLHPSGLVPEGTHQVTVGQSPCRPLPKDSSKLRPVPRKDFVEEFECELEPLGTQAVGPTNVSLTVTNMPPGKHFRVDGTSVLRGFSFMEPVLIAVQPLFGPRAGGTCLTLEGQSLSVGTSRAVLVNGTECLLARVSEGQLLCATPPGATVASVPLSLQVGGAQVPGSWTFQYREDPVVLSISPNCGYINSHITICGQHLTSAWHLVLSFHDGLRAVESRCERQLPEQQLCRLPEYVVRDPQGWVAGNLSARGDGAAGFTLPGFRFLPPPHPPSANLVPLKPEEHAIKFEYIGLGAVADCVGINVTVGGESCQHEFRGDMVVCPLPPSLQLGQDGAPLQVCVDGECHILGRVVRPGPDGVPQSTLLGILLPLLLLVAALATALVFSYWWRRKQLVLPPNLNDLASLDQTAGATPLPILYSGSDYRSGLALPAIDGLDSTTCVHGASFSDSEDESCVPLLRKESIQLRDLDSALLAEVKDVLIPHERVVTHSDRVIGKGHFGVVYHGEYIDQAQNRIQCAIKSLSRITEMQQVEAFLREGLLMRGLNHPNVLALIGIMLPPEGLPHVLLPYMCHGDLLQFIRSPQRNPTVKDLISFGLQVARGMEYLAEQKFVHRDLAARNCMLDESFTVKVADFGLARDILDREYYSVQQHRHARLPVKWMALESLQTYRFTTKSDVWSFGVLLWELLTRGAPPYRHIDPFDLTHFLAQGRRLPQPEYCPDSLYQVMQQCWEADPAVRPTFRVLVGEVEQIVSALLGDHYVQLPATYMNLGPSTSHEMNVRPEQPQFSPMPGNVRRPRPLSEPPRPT
In assay [5] the target is T2, cGMP-dependent protein kinase 1 (Homo sapiens) (UniProt Q13976).
T2 sequence (whole entry): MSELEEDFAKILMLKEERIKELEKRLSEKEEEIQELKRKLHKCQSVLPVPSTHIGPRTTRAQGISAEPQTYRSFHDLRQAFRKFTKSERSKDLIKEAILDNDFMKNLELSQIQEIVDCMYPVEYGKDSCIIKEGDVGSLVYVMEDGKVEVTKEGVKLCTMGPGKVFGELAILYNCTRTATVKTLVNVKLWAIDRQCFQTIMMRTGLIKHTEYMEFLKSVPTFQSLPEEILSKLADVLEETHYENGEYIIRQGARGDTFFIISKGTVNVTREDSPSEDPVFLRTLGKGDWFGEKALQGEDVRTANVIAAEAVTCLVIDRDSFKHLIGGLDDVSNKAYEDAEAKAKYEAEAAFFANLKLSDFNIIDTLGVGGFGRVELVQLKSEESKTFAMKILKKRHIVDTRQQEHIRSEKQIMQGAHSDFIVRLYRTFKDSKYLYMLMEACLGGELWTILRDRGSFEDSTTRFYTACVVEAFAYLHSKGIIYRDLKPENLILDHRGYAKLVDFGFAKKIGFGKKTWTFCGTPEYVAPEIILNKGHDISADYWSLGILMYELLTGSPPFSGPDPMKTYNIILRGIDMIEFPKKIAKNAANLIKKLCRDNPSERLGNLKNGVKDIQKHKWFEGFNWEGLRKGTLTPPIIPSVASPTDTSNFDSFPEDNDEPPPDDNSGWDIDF
Briefly: Inhibition of PRKG1 (unknown origin) assessed as remaining activity at 1 uM by Kinome scan method relative to control.

Assay [6] concerns the target SRSF protein kinase 2 (Homo sapiens) (UniProt P78362). The assay can be described thus: Inhibition of SRPK2 (unknown origin) assessed as remaining activity at 1 uM by Kinome scan method relative to control.
For assay [7], the target named is T3, Serine/threonine-protein kinase TAO3 (Homo sapiens) (UniProt Q9H2K8).
T3 sequence (whole entry): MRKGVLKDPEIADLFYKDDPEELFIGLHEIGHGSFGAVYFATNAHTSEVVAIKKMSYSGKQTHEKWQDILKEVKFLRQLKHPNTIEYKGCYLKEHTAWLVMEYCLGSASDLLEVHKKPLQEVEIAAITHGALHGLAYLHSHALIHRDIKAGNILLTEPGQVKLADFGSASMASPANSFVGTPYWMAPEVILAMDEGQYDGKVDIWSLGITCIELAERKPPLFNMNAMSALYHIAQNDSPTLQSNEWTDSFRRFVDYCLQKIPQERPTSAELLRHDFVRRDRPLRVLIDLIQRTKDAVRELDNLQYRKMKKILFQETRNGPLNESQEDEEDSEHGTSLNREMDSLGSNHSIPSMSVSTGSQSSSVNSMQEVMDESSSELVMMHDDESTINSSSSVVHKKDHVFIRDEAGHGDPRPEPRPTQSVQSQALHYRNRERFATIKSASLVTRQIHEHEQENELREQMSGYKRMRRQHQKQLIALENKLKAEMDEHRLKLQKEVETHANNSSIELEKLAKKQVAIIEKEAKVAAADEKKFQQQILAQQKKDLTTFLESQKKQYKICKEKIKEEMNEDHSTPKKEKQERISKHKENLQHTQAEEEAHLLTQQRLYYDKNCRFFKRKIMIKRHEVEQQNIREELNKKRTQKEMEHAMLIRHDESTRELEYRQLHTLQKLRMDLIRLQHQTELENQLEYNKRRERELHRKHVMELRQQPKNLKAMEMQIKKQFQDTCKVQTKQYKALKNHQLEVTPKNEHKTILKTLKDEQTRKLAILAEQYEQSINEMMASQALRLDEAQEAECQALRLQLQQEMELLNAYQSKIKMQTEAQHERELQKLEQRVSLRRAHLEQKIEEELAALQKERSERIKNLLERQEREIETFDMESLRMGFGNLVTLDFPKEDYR
The assay can be described thus: Inhibition of TAOK3 (unknown origin) assessed as remaining activity at 1 uM by Kinome scan method relative to control.

Assay [8] concerns the target Non-receptor tyrosine-protein kinase TNK1 (Homo sapiens) (UniProt Q13470). The assay can be described thus: Inhibition of TNK1 (unknown origin) assessed as remaining activity at 1 uM by Kinome scan method relative to control.

Chain of SRSF protein kinase 2 (Homo sapiens) (P78362 whole entry, looked up): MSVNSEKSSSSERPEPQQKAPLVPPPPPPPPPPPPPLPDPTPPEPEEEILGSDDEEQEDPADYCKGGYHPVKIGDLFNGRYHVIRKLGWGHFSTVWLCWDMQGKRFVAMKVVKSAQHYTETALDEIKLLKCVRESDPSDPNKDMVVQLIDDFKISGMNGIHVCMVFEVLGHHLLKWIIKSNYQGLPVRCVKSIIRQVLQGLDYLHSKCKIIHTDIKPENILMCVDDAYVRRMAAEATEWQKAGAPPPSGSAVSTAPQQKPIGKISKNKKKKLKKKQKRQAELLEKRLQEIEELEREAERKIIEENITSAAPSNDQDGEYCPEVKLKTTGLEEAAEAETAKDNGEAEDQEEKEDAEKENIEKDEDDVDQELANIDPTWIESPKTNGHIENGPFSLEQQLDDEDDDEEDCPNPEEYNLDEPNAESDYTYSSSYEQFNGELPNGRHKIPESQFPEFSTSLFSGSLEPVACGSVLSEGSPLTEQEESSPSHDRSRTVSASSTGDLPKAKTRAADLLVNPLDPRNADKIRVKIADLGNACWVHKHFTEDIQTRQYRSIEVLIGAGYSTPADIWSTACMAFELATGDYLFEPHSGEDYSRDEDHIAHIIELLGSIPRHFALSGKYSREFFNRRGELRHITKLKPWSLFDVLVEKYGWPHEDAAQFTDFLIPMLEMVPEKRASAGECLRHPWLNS
Chain of Casein kinase I isoform delta (Homo sapiens) (P48730 whole entry, looked up, canonical isoform): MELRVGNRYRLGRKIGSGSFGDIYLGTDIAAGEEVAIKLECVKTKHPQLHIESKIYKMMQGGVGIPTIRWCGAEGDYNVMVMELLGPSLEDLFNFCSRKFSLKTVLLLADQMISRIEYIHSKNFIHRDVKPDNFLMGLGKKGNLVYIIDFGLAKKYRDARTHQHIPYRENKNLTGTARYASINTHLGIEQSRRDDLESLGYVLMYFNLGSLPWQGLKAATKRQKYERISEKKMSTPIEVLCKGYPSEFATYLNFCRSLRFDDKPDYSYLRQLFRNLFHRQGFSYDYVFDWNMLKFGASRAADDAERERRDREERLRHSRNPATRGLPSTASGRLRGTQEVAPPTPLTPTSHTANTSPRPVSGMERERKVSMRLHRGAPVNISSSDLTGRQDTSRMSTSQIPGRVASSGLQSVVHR
Chain of Non-receptor tyrosine-protein kinase TNK1 (Homo sapiens) (Q13470 whole entry): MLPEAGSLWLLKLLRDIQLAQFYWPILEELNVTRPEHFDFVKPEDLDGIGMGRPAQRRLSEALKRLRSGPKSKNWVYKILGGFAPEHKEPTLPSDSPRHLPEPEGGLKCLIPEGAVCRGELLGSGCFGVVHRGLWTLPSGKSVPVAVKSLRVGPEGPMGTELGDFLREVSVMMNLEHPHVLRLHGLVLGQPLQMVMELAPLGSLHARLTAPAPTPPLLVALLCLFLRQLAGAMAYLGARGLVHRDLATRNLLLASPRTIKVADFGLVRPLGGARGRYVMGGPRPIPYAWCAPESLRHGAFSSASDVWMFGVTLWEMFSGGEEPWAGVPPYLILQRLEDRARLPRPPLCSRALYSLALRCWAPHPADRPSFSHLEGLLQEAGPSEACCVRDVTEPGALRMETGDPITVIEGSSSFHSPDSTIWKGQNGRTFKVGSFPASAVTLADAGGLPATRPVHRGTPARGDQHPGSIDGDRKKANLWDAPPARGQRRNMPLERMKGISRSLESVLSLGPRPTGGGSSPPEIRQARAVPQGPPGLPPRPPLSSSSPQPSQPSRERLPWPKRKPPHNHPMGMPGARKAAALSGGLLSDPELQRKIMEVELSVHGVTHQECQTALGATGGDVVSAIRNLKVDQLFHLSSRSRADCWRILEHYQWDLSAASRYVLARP
Chain of Aurora kinase B (Homo sapiens) (Q96GD4 whole entry): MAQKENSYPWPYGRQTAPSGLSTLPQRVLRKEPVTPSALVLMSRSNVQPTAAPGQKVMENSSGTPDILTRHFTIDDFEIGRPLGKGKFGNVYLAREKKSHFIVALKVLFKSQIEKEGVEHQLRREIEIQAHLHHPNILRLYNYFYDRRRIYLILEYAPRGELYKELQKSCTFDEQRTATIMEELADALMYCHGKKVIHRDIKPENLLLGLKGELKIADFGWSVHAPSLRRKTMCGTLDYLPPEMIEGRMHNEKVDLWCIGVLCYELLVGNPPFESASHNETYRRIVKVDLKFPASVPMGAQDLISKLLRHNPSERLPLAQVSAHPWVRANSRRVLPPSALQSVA

Turning to `Nc1ccccc1Nc1ccc2c(c1)CCc1ccccc1C2=O`, the Activity is 97% in assay [1]; 90% in assay [2]; 98% in assay [3]; 97% in assay [4]; 88% in assay [5]; 79% in assay [6]. Also, the Activity in assay [7] turned out to be 99%; in assay [8] it was 90%.

As to `O=C1c2ccc(Nc3ccc(F)cc3F)cc2CCc2ccc(OC[C@H](O)CO)cc21` [Skepinone-L], the Activity in assay [1] was 96%; in assay [2] it was 90%; in assay [3], 100%; in assay [4], 79%; in assay [5], 100%; in assay [6], 95%. Besides, the Activity in assay [7] was 100%; in assay [8], 79%.
